Results reported in publication PMC6979384, “Characterization of the plant homeodomain (PHD) reader family for their histone tail interactions” (Epigenetics & Chromatin, 2020).
Where no end group is shown, it is not given here.

Columns and labels:
Test in all cases: Histone peptide microarray
Assay type in all cases: binding, human
CHD5 (PPCC) = settings: CHD5 (PPCC); sheet "Array Heatmap"; each array performed twice, total n = 4
Procedure, shortened: (§1)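 Mean ± SD of 4 replicate array intensities; GST-PHD finger at 0.5 μM against 293 PTM-bearing histone peptides.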

TAF3 = settings: TAF3; sheet "Array Heatmap"; each array performed twice, total n = 4
Procedure, shortened: as §1

PHF13 = settings: PHF13; sheet "Array Heatmap"; each array performed twice, total n = 4
Procedure, shortened: as §1

KDM5A (1) = settings: KDM5A (1); sheet "Array Heatmap"; each array performed twice, total n = 4
Procedure, shortened: as §1

CHD4 (PPCC) = settings: CHD4 (PPCC); sheet "Array Heatmap"; each array performed twice, total n = 4
Procedure, shortened: as §1

BAZ2B = settings: BAZ2B; sheet "Array Heatmap"; each array performed twice, total n = 4
Procedure, shortened: as §1

RAG2 = settings: RAG2; sheet "Array Heatmap"; each array performed twice, total n = 4
Procedure, shortened: as §1

CHD5 (PCC) = settings: CHD5 (PCC); sheet "Array Heatmap"; each array performed twice, total n = 4
Procedure, shortened: as §1

DPF2 (PPC2W2) = settings: DPF2 (PPC2W2); sheet "Array Heatmap"; each array performed twice, total n = 4
Procedure, shortened: as §1

KDM5A (3) = settings: KDM5A (3); sheet "Array Heatmap"; each array performed twice, total n = 4
Procedure, shortened: as §1

AIRE (PP) = settings: AIRE (PP); sheet "Array Heatmap"; each array performed twice, total n = 4
Procedure, shortened: as §1

KDM5B (1) = settings: KDM5B (1); sheet "Array Heatmap"; each array performed twice, total n = 4
Procedure, shortened: as §1

ING1 = settings: ING1; sheet "Array Heatmap"; each array performed twice, total n = 4
Procedure, shortened: as §1

PHF23 = settings: PHF23; sheet "Array Heatmap"; each array performed twice, total n = 4
Procedure, shortened: as §1

BPTF (PB) = settings: BPTF (PB); sheet "Array Heatmap"; each array performed twice, total n = 4
Procedure, shortened: as §1

PHF21A = settings: PHF21A; sheet "Array Heatmap"; each array performed twice, total n = 4
Procedure, shortened: as §1

ING5 = settings: ING5; sheet "Array Heatmap"; each array performed twice, total n = 4
Procedure, shortened: as §1

ING3 = settings: ING3; sheet "Array Heatmap"; each array performed twice, total n = 4
Procedure, shortened: as §1

ING4 = settings: ING4; sheet "Array Heatmap"; each array performed twice, total n = 4
Procedure, shortened: as §1

ING2 = settings: ING2; sheet "Array Heatmap"; each array performed twice, total n = 4
Procedure, shortened: as §1

TRIM66 (PB) = settings: TRIM66 (PB); sheet "Array Heatmap"; each array performed twice, total n = 4
Procedure, shortened: as §1

PHRF1 (RP) = settings: PHRF1 (RP); sheet "Array Heatmap"; each array performed twice, total n = 4
Procedure, shortened: as §1

KDM7A = settings: KDM7A; sheet "Array Heatmap"; each array performed twice, total n = 4
Procedure, shortened: as §1

PHF2 = settings: PHF2; sheet "Array Heatmap"; each array performed twice, total n = 4
Procedure, shortened: as §1

KDM5B (3) = settings: KDM5B (3); sheet "Array Heatmap"; each array performed twice, total n = 4
Procedure, shortened: as §1

PHF8 = settings: PHF8; sheet "Array Heatmap"; each array performed twice, total n = 4
Procedure, shortened: as §1

MORC3 (CW) = settings: MORC3 (CW); sheet "Array Heatmap"; each array performed twice, total n = 4
Procedure, shortened: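 GST-tagged PHD finger readers were expressed, purified and applied at 0.5 μM to a microarray of 293 synthetic histone peptides carrying single or combinatorial PTMs, using an optimized protocol. Binding signals are averages with standard deviation from 4 replicates.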

KDM4C (TTP) = settings: KDM4C (TTP); sheet "Array Heatmap"; each array performed twice, total n = 4
Procedure, shortened: as §1

SP140L = settings: SP140L; sheet "Array Heatmap"; each array performed twice, total n = 4
Procedure, shortened: as §1

DIDO1 = settings: DIDO1; sheet "Array Heatmap"; each array performed twice, total n = 4
Procedure, shortened: as §1

MLL5 = settings: MLL5; sheet "Array Heatmap"; each array performed twice, total n = 4
Procedure, shortened: as §1

| Substance | Array Heatmap value (peptide array signal) (CHD5 (PPCC)) | Array Heatmap value (peptide array signal) (TAF3) | Array Heatmap value (peptide array signal) (PHF13) | Array Heatmap value (peptide array signal) (KDM5A (1)) | Array Heatmap value (peptide array signal) (CHD4 (PPCC)) | Array Heatmap value (peptide array signal) (BAZ2B) | Array Heatmap value (peptide array signal) (RAG2) | Array Heatmap value (peptide array signal) (CHD5 (PCC)) | Array Heatmap value (peptide array signal) (DPF2 (PPC2W2)) | Array Heatmap value (peptide array signal) (KDM5A (3)) | Array Heatmap value (peptide array signal) (AIRE (PP)) | Array Heatmap value (peptide array signal) (KDM5B (1)) | Array Heatmap value (peptide array signal) (ING1) | Array Heatmap value (peptide array signal) (PHF23) | Array Heatmap value (peptide array signal) (BPTF (PB)) | Array Heatmap value (peptide array signal) (PHF21A) | Array Heatmap value (peptide array signal) (ING5) | Array Heatmap value (peptide array signal) (ING3) | Array Heatmap value (peptide array signal) (ING4) | Array Heatmap value (peptide array signal) (ING2) | also measured |
| --- | --- | --- | --- | --- | --- | --- | --- | --- | --- | --- | --- | --- | --- | --- | --- | --- | --- | --- | --- | --- | --- |
| H2A.X K5ac: H2AX 1-17 (SGRGK(Ac)TGGKARAKAKSR; UniProt P16104 2-18, looked up, fragment) | 0.549 | 0.2702 | 0.5821 | 0.4768 | 0.5228 | 0.4631 | 0.2437 | 0.7832 | 0.6362 | 0.4343 | 0.4642 | 0.7034 | 0.4851 | 0.5099 | 0.3356 | 0.4552 | 0.3639 | 0.4453 | 0.4505 | 0.5785 | Array Heatmap value (peptide array signal) (TRIM66 (PB)): 0.5335; Array Heatmap value (peptide array signal) (PHRF1 (RP)): 0.4233; Array Heatmap value (peptide array signal) (KDM7A): 0.4169; Array Heatmap value (peptide array signal) (PHF2): 0.3936; Array Heatmap value (peptide array signal) (KDM5B (3)): 0.4746; Array Heatmap value (peptide array signal) (PHF8): 0.3518; Array Heatmap value (peptide array signal) (MORC3 (CW)): 0.3506; Array Heatmap value (peptide array signal) (KDM4C (TTP)): 0.5139; Array Heatmap value (peptide array signal) (SP140L): 0.3645; Array Heatmap value (peptide array signal) (DIDO1): 0.6192; Array Heatmap value (peptide array signal) (MLL5): 0.5039 |
| H2BK15ac: H2B 1-24 [Peptide H2BK15ac] | 0.5537 | 0.2676 | 0.6426 | 0.465 | 0.606 | 0.4604 | 0.2507 | 0.7574 | 0.6359 | 0.4161 | 0.4221 | 0.6467 | 0.5436 | 0.5678 | 0.3575 | 0.4803 | 0.3652 | 0.4826 | 0.465 | 0.6208 | Array Heatmap value (peptide array signal) (TRIM66 (PB)): 0.5831; Array Heatmap value (peptide array signal) (PHRF1 (RP)): 0.4303; Array Heatmap value (peptide array signal) (KDM7A): 0.3558; Array Heatmap value (peptide array signal) (PHF2): 0.5204; Array Heatmap value (peptide array signal) (KDM5B (3)): 0.457; Array Heatmap value (peptide array signal) (PHF8): 0.3468; Array Heatmap value (peptide array signal) (MORC3 (CW)): 0.3521; Array Heatmap value (peptide array signal) (KDM4C (TTP)): 0.4832; Array Heatmap value (peptide array signal) (SP140L): 0.361; Array Heatmap value (peptide array signal) (DIDO1): 0.6647; Array Heatmap value (peptide array signal) (MLL5): 0.5596 |
